Among the data in PMC5424641 (Biomolecules & Therapeutics, 2017) are Ki values, retold here.

Structures can show the parent of a compound that is named as a salt. Where two headings read alike, the source gives them in different places.

As usually defined, the Ki is the dissociation constant of the complex between target and ligand, obtained from inhibition or displacement.

Assay [1] has as its target T1, urotensin II receptor (hUT) (Homo sapiens, UniProt Q9UKP6).
T1 sequence (Q9UKP6 1-389): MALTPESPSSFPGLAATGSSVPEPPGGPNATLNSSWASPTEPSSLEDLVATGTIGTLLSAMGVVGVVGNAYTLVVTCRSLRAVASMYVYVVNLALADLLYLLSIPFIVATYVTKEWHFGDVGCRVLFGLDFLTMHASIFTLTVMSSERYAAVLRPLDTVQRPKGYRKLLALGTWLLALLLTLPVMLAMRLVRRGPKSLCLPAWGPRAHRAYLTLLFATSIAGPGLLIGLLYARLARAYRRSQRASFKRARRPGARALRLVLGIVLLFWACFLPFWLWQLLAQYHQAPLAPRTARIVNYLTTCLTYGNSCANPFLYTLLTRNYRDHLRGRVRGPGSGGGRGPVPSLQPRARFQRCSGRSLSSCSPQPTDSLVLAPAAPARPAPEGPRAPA
Briefly: radioligand binding assay.

In assay [2] the target is T1, urotensin II receptor (hUT). The assay can be described thus: radioligand binding assay. This is another data set of the same source.

For the compound `CN(C(=O)CN1C(=O)COc2cc(Cl)c(Cl)cc21)[C@@H](CN1CCOCC1)c1ccc(-c2ccc(C(=O)O)cc2)cc1` [GSK-1440115, 4′-[(1R)-1-[[(6,7-dichloro-3-oxo-2,3-dihydro-4H-1,4-benzoxazin-4-yl)acetyl](methyl)amino]-2-(4-morpholinyl)ethyl]-4-biphenylcarboxylic acid trifluoroacetate], in assay [1], the Ki stood at 31 nM.

Compound `O=C(NC1CCN(Cc2ccc(OC3CCNCC3)c(Br)c2)CC1)c1csc2ccccc12` [KR-36996, N-(1-(3-bromo-4-(piperidin-4-yloxy)benzyl)piperidin-4-yl)benzo[b]thiophene-3-carboxamide] came in with a Ki in assay [2] of 4 nM.
